Assays:
[1] = target: T1, H1299 cell pMer (Homo sapiens, UniProt Q12866); experiment: Inhibitory activity on cell pMer, H1299 cells, Human Mer Mab stimulation, Western Blot; type: cell-based; conditions: Human Mer Mab 200 ng/mL
T1 construct: endogenous in cells; host or cells: H1299
T1 sequence (Q12866 21-999): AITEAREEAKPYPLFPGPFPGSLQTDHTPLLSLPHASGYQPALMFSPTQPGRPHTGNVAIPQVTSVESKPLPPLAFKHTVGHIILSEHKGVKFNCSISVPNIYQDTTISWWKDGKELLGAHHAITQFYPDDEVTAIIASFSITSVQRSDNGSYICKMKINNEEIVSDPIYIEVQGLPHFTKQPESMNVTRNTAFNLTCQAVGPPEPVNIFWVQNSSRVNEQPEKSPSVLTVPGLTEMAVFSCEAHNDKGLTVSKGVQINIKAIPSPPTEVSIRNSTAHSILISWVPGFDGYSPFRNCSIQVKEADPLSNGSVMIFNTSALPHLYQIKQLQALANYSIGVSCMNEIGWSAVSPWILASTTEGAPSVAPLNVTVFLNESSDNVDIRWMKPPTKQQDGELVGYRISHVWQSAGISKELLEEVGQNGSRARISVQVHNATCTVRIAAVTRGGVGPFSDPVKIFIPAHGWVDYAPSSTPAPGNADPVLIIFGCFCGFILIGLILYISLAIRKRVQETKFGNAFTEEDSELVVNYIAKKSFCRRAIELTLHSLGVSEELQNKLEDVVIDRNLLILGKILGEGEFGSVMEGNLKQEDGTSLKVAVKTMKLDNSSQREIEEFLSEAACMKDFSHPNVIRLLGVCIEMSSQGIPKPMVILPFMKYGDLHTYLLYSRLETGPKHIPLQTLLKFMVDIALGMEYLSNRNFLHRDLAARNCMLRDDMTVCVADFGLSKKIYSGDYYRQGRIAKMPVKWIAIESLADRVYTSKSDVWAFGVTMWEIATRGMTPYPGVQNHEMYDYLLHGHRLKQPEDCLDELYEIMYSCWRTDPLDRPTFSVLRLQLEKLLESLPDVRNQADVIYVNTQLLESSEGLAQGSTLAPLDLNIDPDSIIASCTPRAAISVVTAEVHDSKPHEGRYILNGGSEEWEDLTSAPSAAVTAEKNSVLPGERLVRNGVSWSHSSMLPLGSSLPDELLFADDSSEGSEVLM
Description: H1299 is anon-small cell lung cancer cell.
H1299 cells were inoculated to a 6-well plate (containing 10% FBS 1640 medium, 5×10^5 cells per well) and adherently cultivated at 37° C., and 5% CO2 for 18 hrs. The cells were starved overnight, and then compound solutions with different concentrations were added. The compounds had final concentrations of 0.35, 1.1, 3.3 and 10 nM. […] There was a medium containing 1‰DMSO in the negative control well. The cells were incubated at 37° C., and 5% CO2 for 60 min, and then Human Mer Mab (R&D, final concentration: 200 ng/mL) was added to each well. The cells were further incubated for 60 min, and then the total protein of the cells was extracted for Western Blot experiment. Gray analysis was performed on the results with Image J software, and IC50 values were calculated with GraphPad 5.0 software. The inhibitory activities of the compounds on cell pMer were detected.

[2] = target: T2, Tyro-3 (h) (Homo sapiens, UniProt Q06418); experiment: Enzymatic activity assay, Tyro-3 (h), [γ-33P]-ATP filter assay; type: biochemical; conditions: 10 μM ATP, 40 min room temperature; read-out: Inhibitory activity IC50 Tyro-3(h)
T2 sequence (Q06418 41-890): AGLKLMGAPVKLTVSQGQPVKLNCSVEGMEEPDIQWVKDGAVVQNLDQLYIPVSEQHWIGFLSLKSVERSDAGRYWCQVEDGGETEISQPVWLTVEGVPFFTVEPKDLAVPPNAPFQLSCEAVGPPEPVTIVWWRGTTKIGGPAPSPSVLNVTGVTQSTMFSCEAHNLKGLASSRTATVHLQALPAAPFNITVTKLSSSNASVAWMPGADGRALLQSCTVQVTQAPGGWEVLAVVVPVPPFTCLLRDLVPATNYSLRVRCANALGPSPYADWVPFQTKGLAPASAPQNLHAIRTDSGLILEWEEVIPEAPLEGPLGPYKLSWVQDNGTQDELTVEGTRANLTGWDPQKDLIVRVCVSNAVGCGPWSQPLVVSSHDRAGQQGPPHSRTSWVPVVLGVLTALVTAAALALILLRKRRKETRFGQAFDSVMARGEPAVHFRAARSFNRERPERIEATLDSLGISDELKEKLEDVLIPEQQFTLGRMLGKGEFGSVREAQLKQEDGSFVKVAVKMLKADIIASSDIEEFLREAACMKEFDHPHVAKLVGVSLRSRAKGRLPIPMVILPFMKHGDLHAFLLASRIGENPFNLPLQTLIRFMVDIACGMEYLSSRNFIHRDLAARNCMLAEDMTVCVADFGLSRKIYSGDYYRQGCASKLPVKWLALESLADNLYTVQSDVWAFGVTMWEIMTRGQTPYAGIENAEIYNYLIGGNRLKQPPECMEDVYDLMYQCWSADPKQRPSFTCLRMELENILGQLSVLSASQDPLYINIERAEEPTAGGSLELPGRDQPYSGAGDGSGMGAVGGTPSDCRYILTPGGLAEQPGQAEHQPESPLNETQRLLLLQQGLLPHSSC
Description: Compounds were each dissolved in 100% DMSO to prepare stock solutions with a maximum concentration of 500 μM.
Compound working solutions (50×) were prepared by diluting a compound stock solution to a final concentration of 500, 150, 50, 15, 5, 1.5, 0.5, 0.15 and 0.05 μM.
An enzyme solution with a final concentration of 38 nM was prepared by dissolving Tyro3 (h) enzyme in a mixture of 8 mM MOPS (pH 7.0), 0.2 mM EDTA, 1 mM MnCl2 and 250 μM KVEKIGEGTYGVVYK. A Mg/ATP mixture of 10 mM magnesium acetate and 10 μM [γ-^33P]-ATP was used to activate the enzymatic reaction.
A compound working solution was added to a 384-well plate, with final concentrations of 10,000, 3,000, 1,000, 300, 100, 30, 10, 3 and 1 nM, and then different enzymatic reaction solutions prepared according to the above conditions were added. The reaction solutions were incubated at room temperature for 40 min, and then 0.5% phosphoric acid solutions were added to terminate the reaction. 10 μL of the reaction solution was added dropwise to P30 filter paper, washed 4 times with a 0.425% phosphoric acid solution and once with methanol, and then placed in a scintillation counter for detection. Gray analysis was performed on the results with Image J software, and IC50 values were calculated with GraphPad 5.0 software.

Row | Structure (SMILES) | IC50 [1] [nM] | IC50 [2] [nM]
1 | COc1cc2nccc(Oc3cnc(NC(=O)c4nn(CC5CCOCC5)cc(-c5ccc(C)cc5)c4=O)nc3)c2cc1OC [Compound 16, N-(5-((6,7-dimethoxyquinolin-4-yl)oxy)pyrimidin-2-yl)-4-oxo-1-((tetrahydro-2H-pyran-4-yl)methyl)-5-(p-tolyl)-1,4-dihydropyridazin-3-carboxamide] | 1.1 | 23
2 | COc1cc2nccc(Oc3ccc(NC(=O)c4nn(C5CCOCC5)cc(-c5ccc(C)cc5)c4=O)nc3)c2cc1OC [Compound 17, N-(5-((6,7-dimethoxyquinolin-4-yl)oxy)pyridin-2-yl)-4-oxo-1-(tetrahydro-2H-pyran-4-yl)-5-(p-tolyl)-1,4-dihydropyridazin-3-carboxamide] | < 0.35 | 14
3 | COc1cc2nccc(Oc3cnc(NC(=O)c4nn(C5CCOCC5)cc(-c5ccc(C)cc5)c4=O)nc3)c2cc1OC [Compound 18, N-(5-((6,7-dimethoxyquinolin-4-yl)oxy)pyrimidin-2-yl)-4-oxo-1-(tetrahydro-2H-pyran-4-yl)-5-(p-tolyl)-1,4-dihydropyridazin-3-carboxamide] | < 1.1 | 58
4 | COc1cc2nccc(Oc3ccc(NC(=O)c4cn(C5CCOCC5)cc(-c5ccc(C)cc5)c4=O)nc3)c2cc1OC [Compound 19, N-(5-((6,7-dimethoxyquinolin-4-yl)oxy)pyridin-2-yl)-4-oxo-1-(tetrahydro-2H-pyran-4-yl)-5-(p-tolyl)-1,4-dihydropyridin-3-carboxamide] | < 0.35 | 34
5 | COc1cc2nccc(Oc3cnc(NC(=O)c4cn(C5CCOCC5)cc(-c5ccc(C)cc5)c4=O)nc3)c2cc1OC [Compound 20, N-(5-((6,7-dimethoxyquinolin-4-yl)oxy)pyrimidin-2-yl)-4-oxo-1-(tetrahydro-2H-pyran-4-yl)-5-(p-tolyl)-1,4-dihydropyridin-3-carboxamide] | 3.3 to 10 | 84
6 | COc1cc2nccc(Oc3ccc(NC(=O)c4nn(C5CCOCC5)cc(-c5ccc(C)cc5)c4=O)cc3F)c2cc1OC [Compound 28] | 1.1 | 37
7 | COc1cc2nccc(Oc3cnc(NC(=O)c4cn(C5CCOCC5)cc(-c5ccc(F)cc5)c4=O)nc3)c2cc1OC [Compound 31, N-(5-((6,7-dimethoxyquinolin-4-yl)oxy)pyrimidin-2-yl)-5-(4-fluorophenyl)-4-oxo-1-(tetrahydro-2H-pyran-4-yl)-1,4-dihydropyridin-3-carboxamide] | 3.3 to 10 | 78
8 | COc1cc2nccc(Oc3ccc(NC(=O)c4cc(CC5CCOCC5)cn(-c5ccc(F)cc5)c4=O)nc3)c2cc1OC [Compound 32, N-(5-((6,7-dimethoxyquinolin-4-yl)oxy)pyridin-2-yl)-1-(4-fluorophenyl)-2-oxo-5-((tetrahydro-2H-pyran-4-yl)methy 1)-1,2-dihydropyridin-3-carboxamide] | 1.1 | 35

Reference: patent US20210177828A1, “TAM FAMILY KINASE /AND CSF1R KINASE INHIBITOR AND USE THEREOF” (Nanjing Transthera Biosciences Co., Ltd., priority 2018, published 2021)
